Columns and labels:
Assay type in all cases: in vivo
Resistant Myzus persicae = Resistant Myzus persicae (rMP); conditions: resistant strain, pepper plants, spray, mortality 5 days after treatment; 0 = BP80 >50 ppm
Bemisia tabaci = Bemisia tabaci (cotton whitefly), adult, feeding/contact (sBT); conditions: sensitive strain, adults on cotton leaf discs, mortality 4 days after treatment; 0 = BP80 >50 ppm
Procedure: Bemisia tabaci (Cotton Whitefly), Adult, Feeding/Contact (sBT)
(§1) Cotton leaf discs were placed upside down in petri dishes on water agar and treated with the diluted test solutions in a spray chamber. After drying, leaf discs were infested with 10 adult Bemisia tabaci. Dishes were covered with a fabric filter and sealed with a perforated plastic lid. 4 days after treatment samples were assessed for mortality.

Resistant Bemisia tabaci = Resistant Bemisia tabaci (rBT); conditions: resistant strain biotype Q, adults on cotton leaf discs, mortality 4 days after treatment; 0 = BP80 >50 ppm
Procedure: as §1
Resistant Bemisia tabaci (rBT)
Biotype Q originally field-collected in 2000 from Almeria, Spain. […] The strain carried the mutation L925I in the voltage-gated sodium channel conferring resistance to pyrethroids. It also had higher expression of the p450 CYP6CM1 conferring metabolic resistance to neonicotinoids.

Myzus persicae = Myzus persicae (green peach aphid), mixed population, feeding/contact (sMP); conditions: sensitive strain, pepper plants, spray, mortality 5 days after treatment; 0 = BP80 >50 ppm
Procedure: Myzus persicae (Green Peach Aphid), Mixed Population, Feeding/Contact (sMP)
Pepper plants were infested with an Myzus persicae population of mixed ages. One day after infestation the plants were treated with the diluted test solutions in a spray chamber. 5 days after treatment samples were assessed for mortality.

## CC[S@@](=N)(=O)c1cc(C2(C#N)CC2)cnc1-c1nc2cc(C(F)(F)F)cnc2n1C [P24, (R)-1-[5-(ethyl-sulfonimidoyl)-6-[3-methyl-6-(trifluoromethyl)imidazo[4,5-b]pyridin-2-yl]-3-pyridyl]cyclo-propanebonitrile]
Resistant Myzus persicae
  pBP80 r-MP: 4.5
Bemisia tabaci
  pBP80 sBT: 5.1
Resistant Bemisia tabaci
  pBP80 rBT: 3.9
Myzus persicae
  pBP80 s-MP: 5.2
